Tests used:
Progesterone receptor = Progesterone receptor (Rattus norvegicus, UniProt Q63449); assay: Binding affinity to progesterone receptor
Glucocorticoid receptor = molecular target: T1, Glucocorticoid receptor (Rattus norvegicus, UniProt P06536); assay: Binding affinity to rat glucocorticoid receptor
T1 sequence (P06536 whole entry): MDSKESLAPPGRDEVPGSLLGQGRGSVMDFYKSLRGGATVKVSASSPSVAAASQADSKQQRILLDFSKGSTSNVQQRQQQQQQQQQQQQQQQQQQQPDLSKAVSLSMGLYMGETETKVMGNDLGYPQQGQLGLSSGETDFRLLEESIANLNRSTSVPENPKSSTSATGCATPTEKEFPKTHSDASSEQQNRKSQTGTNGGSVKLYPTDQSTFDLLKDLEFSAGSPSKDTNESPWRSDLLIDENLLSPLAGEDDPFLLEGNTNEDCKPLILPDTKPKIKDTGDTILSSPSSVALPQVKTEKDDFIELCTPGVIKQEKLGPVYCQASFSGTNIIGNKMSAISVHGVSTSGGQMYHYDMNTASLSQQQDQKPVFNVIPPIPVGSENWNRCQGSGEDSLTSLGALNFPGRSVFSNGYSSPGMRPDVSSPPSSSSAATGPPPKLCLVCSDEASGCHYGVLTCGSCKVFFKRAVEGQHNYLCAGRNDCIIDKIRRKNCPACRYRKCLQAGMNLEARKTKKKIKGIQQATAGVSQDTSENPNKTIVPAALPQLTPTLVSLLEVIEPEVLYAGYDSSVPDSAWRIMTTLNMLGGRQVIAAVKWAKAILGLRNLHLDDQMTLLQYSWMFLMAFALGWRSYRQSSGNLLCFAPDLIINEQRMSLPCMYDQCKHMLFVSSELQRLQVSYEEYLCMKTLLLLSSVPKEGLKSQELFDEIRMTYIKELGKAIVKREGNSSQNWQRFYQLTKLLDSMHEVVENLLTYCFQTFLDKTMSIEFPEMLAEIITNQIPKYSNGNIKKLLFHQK

Progesterone receptor, sequence (Q63449 whole entry): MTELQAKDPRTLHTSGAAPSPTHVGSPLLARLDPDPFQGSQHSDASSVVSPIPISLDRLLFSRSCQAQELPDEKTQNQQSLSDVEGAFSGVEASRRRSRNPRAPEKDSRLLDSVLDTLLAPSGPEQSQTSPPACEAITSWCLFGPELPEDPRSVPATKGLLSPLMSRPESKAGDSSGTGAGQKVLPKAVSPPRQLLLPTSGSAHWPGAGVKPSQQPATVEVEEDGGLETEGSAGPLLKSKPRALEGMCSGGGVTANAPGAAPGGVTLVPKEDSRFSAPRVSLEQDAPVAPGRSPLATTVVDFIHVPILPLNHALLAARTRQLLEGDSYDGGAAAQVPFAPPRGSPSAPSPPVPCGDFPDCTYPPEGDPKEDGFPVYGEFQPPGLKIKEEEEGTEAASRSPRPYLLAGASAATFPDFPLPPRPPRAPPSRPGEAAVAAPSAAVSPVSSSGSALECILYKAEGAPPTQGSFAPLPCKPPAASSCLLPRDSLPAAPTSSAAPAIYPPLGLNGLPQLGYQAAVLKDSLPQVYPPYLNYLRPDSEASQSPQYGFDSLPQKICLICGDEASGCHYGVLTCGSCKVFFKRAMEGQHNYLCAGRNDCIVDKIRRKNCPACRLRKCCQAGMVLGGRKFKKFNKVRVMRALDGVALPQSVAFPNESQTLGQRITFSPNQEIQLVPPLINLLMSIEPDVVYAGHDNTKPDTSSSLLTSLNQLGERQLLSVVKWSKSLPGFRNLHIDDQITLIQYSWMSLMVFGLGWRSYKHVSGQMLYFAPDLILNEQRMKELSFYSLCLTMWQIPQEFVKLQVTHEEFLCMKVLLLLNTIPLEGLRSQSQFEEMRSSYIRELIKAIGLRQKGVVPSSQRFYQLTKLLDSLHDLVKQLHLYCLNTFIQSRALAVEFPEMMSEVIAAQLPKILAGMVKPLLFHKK

EC50 (Progesterone receptor): 126 nM | EC50 (Glucocorticoid receptor): 7.94 nM
Compound: C=CCC1Oc2cccc(OC)c2-c2ccc3c(c21)C(C)=CC(C)(C)N3 (configuration not stated) [AL-43]
